Experimental data reported in paper PMC5799255, “Histone H5 is a potent Antimicrobial Agent and a template for novel Antimicrobial Peptides” (Scientific Reports, 2018).
Like-named read-outs stand apart in the source and are kept apart here. Marks after values point to notes of the source that are not given here. Ends that are not written are not given here.

What was measured:
[1] = tested on: Listeria monocytogenes (ATCC 19112); details: preliminary peptide screen, peptide purities 50% to 81.9%, tested 1-64 µg/mL, broth microdilution, mean ± SD, n = 3
Experimental: (§1) Antimicrobial activity of histone H5 against a variety of Gram-positive and Gram-negative planktonic bacteria was evaluated using a broth microdilution assay.
(§2) The antimicrobial activity of these peptides against Gram-positive and Gram-negative planktonic bacteria was evaluated using broth microdilution assays.
(§3) The bacterial strains tested in this study were Gram-positive bacteria (Bacillus cereus (ATCC 11778), methicillin-sensitive Staphylococcus aureus (ATCC 6538), methicillin-resistant Staphylococcus aureus (ATCC 29247), Listeria monocytogenes (ATCC 19112), Enterococcus faecalis (clinical isolate) and vancomycin-resistant Enterococcus (ATCC 51299)) and Gram-negative bacteria Escherichia coli K12 (ATCC 29425), Escherichia coli (O157:H7), Pseudomonas aeruginosa (ATCC 15442) and Salmonella typhimurium (ATCC 1535)). Bacterial colonies from glycerol stocks were plated on LB agar plates (BHI agar plates for L. monocytogenes) and incubated overnight at 37 °C. Single colonies from these plates were grown in 3 mL of LB broth (BHI broth for L. monocytogenes) overnight at 37 °C and shaken at 250 rpm. […] The bacterial suspension was pelleted at 3,000 × g, 4 °C for 10 minutes and washed with PBS (twice), and then adjusted to 10^5–10^6 CFUs/mL in PBS.
(§4) Supplementary Information
(§5) Broth microdilution assay
(§6) The protocol for this step of the project was based on established methods22. Histone H5 or the peptides were dissolved in sterile water, pH 7.4, serially two-fold diluted and aliquoted in a 1:1 (v/v) ratio with bacteria. Kanamycin or ampicillin served as a positive control for inhibition, and sterile water (pH 7.4) as a negative control for inhibition. The tubes were then incubated for 3 hours at 37°C an d shaken at 200 rpm. Next, 100 µL of each tube and 100µL of LB broth (BHI broth for L. monocytogenes) was plated in wells of a 96-well microplate. The microplate was incubated in the EON microplate reader overnight at 206 oscillations/min and at 37°C. During this period, the EON microplate spectrophotometer and Gen5 data analysis software (BioTek, Winooski, VT, USA) were used to monitor the growth of bacteria by measuring the optical density at 600 nm every 30 minutes for 18 hours. The lowest protein concentration without visible bacterial growth was designated as the minimum inhibitory concentration (MIC). Bacteria (10 µL) from the wells at MIC, MIC x 2 and MIC x 3 concentrations of H5 were plated on LB agar (BHI agar for L. monocytogenes) and incubated at 37°C for 18 hours. The lowest concentration of histone H5 without a single colony was designated as the minimum bactericidal concentration (MBC).

[2] = tested on: Pseudomonas aeruginosa (ATCC 15442); details: preliminary peptide screen, peptide purities 50% to 81.9%, tested 1-64 µg/mL, broth microdilution, mean ± SD, n = 3
Experimental: as §1, §2, §3, §4, §5, §6

P. aeruginosa = tested on: P. aeruginosa; parameters: method as in PMID 22723861, PMID 16978580; details: cited from earlier work
E. faecalis = tested on: E. faecalis; parameters: method as in PMID 22723861, PMID 16978580; details: cited from earlier work
S. aureus = tested on: S. aureus; parameters: method as in PMID 22723861, PMID 16978580; details: cited from earlier work
E. coli = tested on: E. coli; parameters: method as in PMID 22723861, PMID 16978580; details: cited from earlier work
P. aeruginosa biofilms = details: cited from earlier work
Source text: (§7) L. monocytogenes and P. aeruginosa are major human pathogens that cause serious illnesses through foodborne and hospital-acquired infections, respectively. […] Moreover, an estimated 51,000 healthcare-associated infections leading to 440 deaths per year in the United States are caused by P. aeruginosa. Additionally, both pathogens have the ability to form biofilms, which enhances their persistence in unfavourable environ ...

[3] = tested on: L. monocytogenes biofilms; details: 6.8 µg/mL, 2 and 4 hours of treatment, cited from earlier work
Source text: as §7

**Q.** For EMIAAAIRAEKSRGGSSRQS [H5(31–50)], which MIC [1] is on record?
**A.** inactive

**Q.** And the MIC ([1]; listed as H5 (31–50))?
**A.** NI ^‡ (Non-inhibitory at the highest concentration tested (64 µg/mL))

**Q.** And the MIC [2]?
**A.** non-inhibitory

**Q.** What about the MIC ([2]; listed as H5 (31–50)) of the same substance?
**A.** NI ^‡ (Non-inhibitory at the highest concentration tested (64 µg/mL))

**Q.** Which MIC [1] does the source give for “EMIAAAIRAEKSRGGSSRQSIQKYIKSHYK [H5(31–60)]” here?
**A.** inactive

**Q.** What about the MIC ([1]; listed as H5 (31–60)) of the same substance?
**A.** NI ^‡ (Non-inhibitory at the highest concentration tested (64 µg/mL))

**Q.** And the MIC [2]?
**A.** non-inhibitory

**Q.** What about the MIC ([2]; listed as H5 (31–60)) of the same substance?
**A.** NI ^‡ (Non-inhibitory at the highest concentration tested (64 µg/mL))

**Q.** What does the source list for “Human β-defensin-3: a human host defence antimicrobial peptide (GIINTLQKYYCRVRGGRCAVLSCLPKEEQIGKCSTRGRKCCRRKK; ends and bridges not checked; cysteine pairing not given here; UniProt P81534 23-67, looked up)”?
**A.** MIC (P. aeruginosa): 13 µg/mL; MIC (E. faecalis): > 512 µg/mL; MIC (S. aureus): 12 µg/mL; MIC (E. coli): 6 µg/mL

**Q.** For LL-37, which MBEC (P. aeruginosa biofilms) is on record?
**A.** 640 µg/mL

**Q.** And the MBEC/MIC ratio (P. aeruginosa biofilms)?
**A.** 5–80

**Q.** Which MIC [1] does the source give for LSIRRLLAAGVLKQTKGVGA [H5(71–90)] here?
**A.** >64^† µg/mL

**Q.** What about the MIC [2] of the same substance?
**A.** 26.7 ± 14.1 µg/mL

**Q.** What does the source list for “RVKASRRSASHPTYSEMIAAAIRAEKSRGG [H5(16–45)]”?
**A.** MIC [1]: inactive; MIC ([1]; listed as H5 (16–45)): NI ^‡ (Non-inhibitory at the highest concentration tested (64 µg/mL)); MIC [2]: non-inhibitory; MIC ([2]; listed as H5 (16–45)): NI ^‡ (Non-inhibitory at the highest concentration tested (64 µg/mL))

**Q.** Which MIC [1] does the source give for VLKQTKGVGASGSFRLAKSD [H5(81–100)] here?
**A.** inactive

**Q.** And the MIC ([1]; listed as H5 (81–100))?
**A.** NI ^‡ (Non-inhibitory at the highest concentration tested (64 µg/mL))

**Q.** And the MIC [2]?
**A.** non-inhibitory

**Q.** And the MIC ([2]; listed as H5 (81–100))?
**A.** NI ^‡ (Non-inhibitory at the highest concentration tested (64 µg/mL))

**Q.** With magainin II as the substance, how does the MBEC (P. aeruginosa biofilms) read?
**A.** > 640 µg/mL

**Q.** Which MBEC (P. aeruginosa biofilms) does the source give for “melittin: CAMP tested against P. aeruginosa biofilms in the literature” here?
**A.** > 640 µg/mL

**Q.** With paenibacterin as the substance, how does the “disruption of established biofilms (in words)” value ([3]; biofilms developed statically at 30 °C) read?
**A.** effective

**Q.** What about the “disruption of established biofilms (in words)” value ([3]; stronger biofilms developed at 37 °C) of the same substance?
**A.** not effective
